Results taken from ChEMBL document CHEMBL5214942, “Discovery of biphenyls bearing thiobarbiturate fragment by structure-based strategy as Mycobacterium tuberculosis protein tyrosine phosphatase B inhibitors” (Bioorg Med Chem, 2022).
pIC50, pKi: −log10 of the molar value. ≈ marks a conversion by molar mass, not a printed value. Calls of active or inactive are those of the source. The calls are words filed in the database; no cut-off is given here.

Tests used:
[1] = target: T1, Phosphotyrosine-protein phosphatase PTPB (Mycobacterium tuberculosis) (UniProt P96830); test: Inhibition of recombinant Mycobacterium tuberculosis H37Rv MptpB using pNPP as substrate incubated for 10 mins at 50 uM and measured by spectrophotometric method relative to control
T1 sequence (whole entry): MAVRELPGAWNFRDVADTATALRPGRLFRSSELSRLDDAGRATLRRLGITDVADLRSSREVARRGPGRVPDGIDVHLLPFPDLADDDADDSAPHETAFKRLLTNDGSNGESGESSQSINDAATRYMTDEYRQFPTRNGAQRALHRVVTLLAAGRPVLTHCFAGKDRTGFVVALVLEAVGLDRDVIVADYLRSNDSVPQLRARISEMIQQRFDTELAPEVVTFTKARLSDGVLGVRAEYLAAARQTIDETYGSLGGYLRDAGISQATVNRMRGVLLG

[2] = target: T2, Phosphotyrosine-protein phosphatase PTPB (Mycobacterium tuberculosis, UniProt P96830); test: Inhibition of recombinant Mycobacterium tuberculosis H37Rv MptpB using pNPP as substrate incubated for 10 mins and measured by spectrophotometric method
T2 sequence (P96830 whole entry): T1 sequence (whole entry)

[3] = Cytotoxicity against African green monkey Vero cells after 48 hrs by MTT assay; format: toxicity, cell-based; details: African green monkey (Chlorocebus sabaeus)
[4] = test system: Mycobacterium tuberculosis; test: Antimycobacterial activity against Mycobacterium tuberculosis H37Rv measured by microplate alamar blue assay; format: functional
[5] = test system: Mycobacterium tuberculosis; test: Antimycobacterial activity against Mycobacterium tuberculosis infected in mouse J774.A1 cells assessed as reduction in intracellular bacterial burden at 5 ug/ml measured by colony counting method; format: functional; parameters: scale not given: the % may be the effect or the level left; details: dose 5 µg/ml
[6] = target: T3, Low molecular weight protein-tyrosine phosphatase A (Mycobacterium tuberculosis) (UniProt P9WIA1); test: Inhibition of recombinant Mycobacterium tuberculosis H37Rv MptpA using pNPP as substrate at 50 uM incubated for 10 mins and measured by spectrophotometric method relative to control
T3 sequence (whole entry): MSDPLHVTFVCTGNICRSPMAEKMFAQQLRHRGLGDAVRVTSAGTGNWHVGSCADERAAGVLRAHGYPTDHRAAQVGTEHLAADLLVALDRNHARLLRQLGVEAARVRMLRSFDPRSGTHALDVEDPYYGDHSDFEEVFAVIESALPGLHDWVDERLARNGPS

[7] = target: T4, Tyrosine-protein phosphatase non-receptor type 1 (Homo sapiens) (UniProt P18031); test: Inhibition of recombinant human PTP1B using pNPP as substrate preincubated for 5 mins followed by substrate addition assessed as reduction in p-nitrophenol release at 50 uM relative to control
T4 sequence (whole entry): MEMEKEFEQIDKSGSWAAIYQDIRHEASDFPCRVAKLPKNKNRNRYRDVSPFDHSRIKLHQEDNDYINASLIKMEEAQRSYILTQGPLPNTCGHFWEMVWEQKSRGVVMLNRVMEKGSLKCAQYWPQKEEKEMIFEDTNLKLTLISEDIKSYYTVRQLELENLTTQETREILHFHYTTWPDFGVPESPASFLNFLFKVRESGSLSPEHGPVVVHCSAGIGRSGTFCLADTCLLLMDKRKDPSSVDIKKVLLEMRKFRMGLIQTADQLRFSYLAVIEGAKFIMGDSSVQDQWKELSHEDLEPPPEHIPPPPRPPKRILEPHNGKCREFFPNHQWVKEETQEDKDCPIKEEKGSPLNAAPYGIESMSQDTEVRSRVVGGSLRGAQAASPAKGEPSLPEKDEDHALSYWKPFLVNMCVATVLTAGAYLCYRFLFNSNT

[8] = target: T5, Tyrosine-protein phosphatase non-receptor type 1 (Homo sapiens, UniProt P18031); test: Inhibition of recombinant human PTP1B using pNPP as substrate preincubated for 5 mins followed by substrate addition assessed as reduction in p-nitrophenol release
T5 sequence (P18031 whole entry): T4 sequence (whole entry)

[9] = Cytotoxicity against mouse J774.A1 cells after 48 hrs by MTT assay; format: toxicity, cell-based
[10] = test system: Mycobacterium tuberculosis; test: Antimycobacterial activity against Mycobacterium tuberculosis infected in mouse J774.A1 cells assessed as reduction in intracellular bacterial burden at 1 to 10 ug/ml measured by colony counting method; format: functional, organism-based; details: dose 1-10 µg/ml
[11] = target: T2, Phosphotyrosine-protein phosphatase PTPB; test: Non-competitive inhibition of recombinant Mycobacterium tuberculosis H37Rv MptpB using pNPP as substrate
[12] = target: T6, Low molecular weight protein-tyrosine phosphatase A (Mycobacterium tuberculosis, UniProt P9WIA1); test: Inhibition of recombinant Mycobacterium tuberculosis H37Rv MptpA using pNPP as substrate incubated for 10 mins and measured by spectrophotometric method
T6 sequence (P9WIA1 whole entry): T3 sequence (whole entry)

Compound	inhibition [1] [%]	pIC50 [2]	IC50 at 48 h [3] [µg/mL]	MIC [4] [µg/mL]	IC50 at 48 h [9] [µg/mL]	other results
O=C1NC(=S)NC(=O)C1=Cc1cc(-c2cc(Cl)c(O)c(Cl)c2)ccc1OCc1ccc(Cl)cc1	95.9	5.93	> 64	> 32	13 (≈ 24.4 µM)	Activity [5]: 90%; inhibition [6]: 86.4%; inhibition [7]: 98.3%; pIC50 [8]: 5.29; Activity [10]: Active; pKi [11]: 6.00; pIC50 [12]: 5.05
O=C1NC(=S)NC(=O)C1=Cc1cc(-c2cc(Cl)c(O)c(Cl)c2)ccc1OCc1cc(F)cc(F)c1	89.1	5.27	> 64	> 32	15.4 (≈ 28.8 µM)	inhibition [7]: 92.3%; pIC50 [8]: 5.20
O=C1NC(=S)NC(=O)C1=Cc1cc(-c2ccc(O)c(F)c2)ccc1OCc1ccc(Cl)cc1	65					
CO[C@H]1/C=C/O[C@@]2(C)Oc3c(C)c(O)c4c(O)c(c(/C=N/N5CCN(C)CC5)c(O)c4c3C2=O)NC(=O)/C(C)=C\C=C\[C@H](C)[C@H](O)[C@@H](C)[C@@H](O)[C@@H](C)[C@H](OC(C)=O)[C@@H]1C [RIFAMPIN]			> 64	0.037 (≈ 0.045 µM)	> 64	
CN1C(=O)C(=Cc2cc(-c3cc(Cl)c(O)c(Cl)c3)ccc2OCc2ccc(Cl)cc2)C(=O)N(C)C1=S	87	4.85				
O=C1NC(=S)NC(=O)C1=Cc1cc(OCc2ccc(Cl)cc2)cc(-c2cc(Cl)c(O)c(Cl)c2)c1	91.6	5.33	> 64	> 32	39.9 (≈ 74.7 µM)	inhibition [6]: 39.7%; inhibition [7]: 93.7%; pIC50 [8]: 5.11
O=C1NC(=S)NC(=O)C1=Cc1ccc(OCc2ccc(Cl)cc2)cc1-c1cc(Cl)c(O)c(Cl)c1	95	5.44	> 64	> 32	57 (≈ 107 µM)	inhibition [6]: 49%; inhibition [7]: 78.6%; pIC50 [8]: 4.47
O=C1NC(=S)NC(=O)C1=Cc1cc(Br)ccc1OCc1ccc(Cl)cc1	63	4.65				
CN1C(=O)C(=Cc2cc(-c3cc(Cl)c(O)c(Cl)c3)ccc2OCc2ccc(Cl)cc2)C(=O)N(C)C1=O	51.9					
O=C1NC(=O)C(=Cc2cc(-c3cc(Cl)c(O)c(Cl)c3)ccc2OCc2ccc(Cl)cc2)C(=O)N1	16.2					
O=C1NC(=S)NC(=O)C1=Cc1cc(-c2ccc(OC(F)(F)F)cc2)ccc1OCc1ccc(Cl)cc1	65					
C/C=C(\C)[C@@H]1C(C)=C[C@@H]2CC(C)=CC[C@H]2[C@@H]1/C=C/C=C(\C)[C@@H](O)[C@@H](C)C(=O)O		5.98				
O=C1NC(=S)NC(=O)C1=Cc1c(OCc2ccc(Cl)cc2)cccc1-c1cc(Cl)c(O)c(Cl)c1	45.5					
O=C1NC(=S)NC(=O)C1=Cc1ccc(-c2cc(Cl)c(O)c(Cl)c2)c(OCc2ccc(Cl)cc2)c1	75.2					
O=C(C(c1ccccc1)S(=O)(=O)O)N1CCCC2CCCCC21 (configuration not stated)		7.74				
O=C1NC(=S)NC(=O)C1=Cc1ccc(OCc2ccc(Cl)cc2)c(-c2cc(Cl)c(O)c(Cl)c2)c1	84.4	5.23	> 64	> 32	13.9 (≈ 26 µM)	inhibition [6]: 69.6%; inhibition [7]: 98.2%; pIC50 [8]: 5.46
COC(=O)c1ccc(-c2ccc(OCc3ccc(Cl)cc3)c(C=C3C(=O)NC(=S)NC3=O)c2)cc1	63.3					
Cc1cc(-c2ccc(OCc3ccc(Cl)cc3)c(C=C3C(=O)NC(=S)NC3=O)c2)cc(C)c1O	59.2					
NNC(=O)c1ccncc1 [ISONIAZID]			> 64	0.072 (≈ 0.525 µM)	> 64	
O=C1NC(=S)NC(=O)C1=Cc1cc(-c2ccccc2)ccc1OCc1ccc(Cl)cc1	43.9					
O=C1NC(=S)NC(=O)C1=Cc1cc(-c2ccc(O)c(Cl)c2)ccc1OCc1ccc(Cl)cc1	72.7					
O=C1NC(=S)NC(=O)C1=Cc1cc(-c2cc(Cl)c(O)c(Cl)c2)ccc1OCc1ccccc1	95.4	5.42	> 64	25.1 (≈ 50.2 µM)	3.44 (≈ 6.89 µM)	inhibition [6]: 14.6%; inhibition [7]: 87.7%; pIC50 [8]: 4.56
O=C1NC(=S)NC(=O)C1=Cc1cc(-c2ccc3occc(=O)c3c2)ccc1OCc1ccc(Cl)cc1	73					
O=C1NC(=S)NC(=O)C1=Cc1cc(-c2ccc(Cl)cc2)ccc1OCc1ccc(Cl)cc1	77.5					
O=C1NC(=S)NC(=O)C1=Cc1cc(-c2ccc(C(F)(F)F)cc2)ccc1OCc1ccc(Cl)cc1	86.4	5.42	> 64	> 32	14.8 (≈ 28.6 µM)	inhibition [6]: 74.2%; inhibition [7]: 81.4%; pIC50 [8]: 5.41; pIC50 [12]: 4.70
COc1ccc(-c2ccc(OCc3ccc(Cl)cc3)c(C=C3C(=O)NC(=S)NC3=O)c2)cc1	42.7					
Cc1onc(C(=O)O)c1-c1cccc(-c2cc(Cl)c(O)c(Cl)c2)c1		5.53				
O=C1NC(=S)NC(=O)C1=Cc1cc(-c2cc3ccccc3s2)ccc1OCc1ccc(Cl)cc1	57.5					
